{
  "source": "paper PMC3510438",
  "about": "“The transmembrane tyrosines Y56, Y91 and Y167 play important roles in determining the affinity and transport rate of the rabbit proton-coupled peptide transporter PepT1” (The International Journal of Biochemistry & Cell Biology, 2009)",
  "target": "T1, Y91F-rPepT1 (Oryctolagus cuniculus, UniProt P36836, Y91F)",
  "T1 construct": "expressed in transfected cells; host or cells: Xenopus laevis oocytes injected with cRNA",
  "T1 sequence (P36836 1-707 Y91F)": "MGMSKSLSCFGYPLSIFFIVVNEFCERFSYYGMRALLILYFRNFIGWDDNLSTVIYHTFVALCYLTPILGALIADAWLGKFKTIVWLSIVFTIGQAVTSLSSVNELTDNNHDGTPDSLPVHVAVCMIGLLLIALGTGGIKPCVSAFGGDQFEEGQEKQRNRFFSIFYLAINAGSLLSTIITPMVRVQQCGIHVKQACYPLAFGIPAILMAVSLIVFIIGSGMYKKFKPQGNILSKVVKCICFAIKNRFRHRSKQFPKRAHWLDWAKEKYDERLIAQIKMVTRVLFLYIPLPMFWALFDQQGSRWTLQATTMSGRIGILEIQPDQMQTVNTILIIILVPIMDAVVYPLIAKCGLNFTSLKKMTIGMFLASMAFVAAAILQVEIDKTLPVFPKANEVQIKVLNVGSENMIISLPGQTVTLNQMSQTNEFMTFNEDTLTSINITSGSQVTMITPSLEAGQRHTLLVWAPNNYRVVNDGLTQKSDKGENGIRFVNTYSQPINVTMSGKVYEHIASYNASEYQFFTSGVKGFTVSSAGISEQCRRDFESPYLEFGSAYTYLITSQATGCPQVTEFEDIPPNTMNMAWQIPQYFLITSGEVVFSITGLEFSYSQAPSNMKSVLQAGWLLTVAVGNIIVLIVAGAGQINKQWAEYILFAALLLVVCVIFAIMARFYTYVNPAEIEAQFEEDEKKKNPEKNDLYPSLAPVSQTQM",
  "assay": "Uptake of tracer [3H]-D-Phe-L-Gln into Xenopus oocytes",
  "format": "cell-based, rabbit",
  "settings": "corrected for surface expression; versus wild-type",
  "description": "rPepT1 constructs were linearised with XbaI (New England Biolabs, UK) and cRNA generated by in vitro transcription (T7 mMessage mMachine, Ambion, Cambridgeshire, UK). Xenopus laevis oocytes were obtained under MS222 anaesthesia (0.2%, w/v) in accordance with the UK Animals (Scientific Procedures) Act, 1986, and maintained at 18 °C in modified Barth's medium (88 mM NaCl, 1 mM KCl, 0.82 mM MgSO4, 2.4 mM NaHCO3, 0.42 mM CaCl2, 10 mM Hepes, 5 mM sodium pyruvate, 50 μg ml^−1 gentamicin (Fluka, Poole, UK), adjusted to pH 7.6 with 1 M NaOH). Transport measurements were performed at least 72 h after micro-injection of oocytes with 27nl cRNA (1 μg/μl), with medium changed daily.\nUptake of [^3H]-D-Phe-L-Gln (17.4 Ci/mmole, custom synthesised, Cambridge Research Biochemicals, Stockton-on-Tees, UK) was performed as previously described ([Meredith, 2004]). […] After incubation, the oocytes were washed sequentially five times in 1 ml of ice-cold 120 mM NaCl solution, lysed individually with 100 μl 2% (w/v) SDS and liquid scintillation counted. […]\nLuminometry assays were performed as described previously ([Panitsas et al., 2006]). […] Luminometer (Turner-Designs 20/20, Promega) readings for at least 15 oocytes per data point were taken immediately.",
  "data": [
    {"substance": "[^3H]-D-Phe-L-Gln", "values": [
      {"measurement": "decrease in the rate of transport per protein molecule", "result": 40, "unit": "%"}
    ]}
  ]
}
